Source: patent publication US6465654B2, “Process for preparing 1-substituted, 2-substituted 1H-imidazo[4, 5-c]quinoline-4-amines” (3M Innovative Properties Company, priority 1991, dated 2002)

Legend:
[1] = tested on: interferon-α; assay: Interferon-α induction in human cells, PBM; assay type: cell-based; conditions: 24 hours
[2] = tested on: interferon; assay: Interferon induction in mice; assay type: in vivo; conditions: mouse serum
How it was run: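 Mouse serum collected at 1, 2 and 4 h (separate groups), pooled, stored at −70° C, then assayed as for human-cell interferon. Values in α/β reference units/mL against a mouse MU-1-IF standard; "<" marks levels below assay sensitivity.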

[3] = tested on: MC-26 colon tumor cells; assay: Inhibition of MC-26 tumors in mice, 14 day lung colony count; assay type: in vivo; conditions: lung colonies day 14, 4×10^4 MC-26 cells i.v., oral 30 mg/kg on days 3-7 and 10-14; control 385 ± 31
Method: The mice are sacrificed 14 days later. […] Five mice are in each treatment group and comparisons are made to controls. […] The mice in the control groups were dosed orally with saline (10 mL/kg) on days 3, 4, 5, 6, and 7, and with water (10 mL/kg) on days 10, 11, 12, 13, and 14.

[4] = tested on: vesicular stomatitis virus (VSV); assay: microbe, parasite or virus in culture; assay type: cell-based; conditions: Vesicular stomatitis virus, read-out: VSV Yield Inhibition
[5] = tested on: Herpes simplex virus Type II strain 333; assay: Antiviral activity in guinea pigs infected with Herpes simplex virus Type II (lesion inhibition); assay type: in vivo; conditions: oral once daily for four days
Text: Female Hartley guinea pigs weighing 200 to 250 g are anesthetized with methoxyflurane (available under the […] from Pitman-Moore, Inc., Washington Crossing, N.J.), after which the vaginal area is swabbed with a dry cotton swab. The guinea pigs are then infected intravaginally with a cotton swab saturated with Herpes simplex virus Type II strain 333 (1×10^5 plaque forming units/mL). Guinea pigs are assigned to groups of 7 animals; one group for each treatment and one to serve as a control (vehicle treated). The compounds of the invention are formulated in water containing 5% Tween 80 (a polyoxyethylene sorbitan monooleate available from Aldrich Chemical Company, Inc., Milwaukee, Wis.). The, guinea pigs are treated orally once daily for four consecutive days starting 24 hours after infection. Antiviral activity is evaluated by comparing lesion development in compound-treated versus vehicle-treated guinea pigs. […] The maximum lesion score of each guinea pig is used to calculate the percentage lesion inhibition. The percentage lesion inhibition is calculated as follows: […]

[6] = tested on: interferon-α; assay: Interferon-α induction in human cells, diluted whole blood; assay type: cell-based; conditions: 24 hours
[7] = tested on: interferon; assay: Interferon induction in guinea pigs (serum interferon titer); assay type: in vivo; conditions: guinea pig serum 24 hours after initial oral dose
Text: Female Hartley guinea pigs weighing 200 to 250 g are anesthetized with methoxyflurane (available under the […] from Pitman-Moore, Inc., Washington Crossing, N.J.), after which the vaginal area is swabbed with a dry cotton swab. The guinea pigs are then infected intravaginally with a cotton swab saturated with Herpes simplex virus Type II strain 333 (1×10^5 plaque forming units/mL). Guinea pigs are assigned to groups of 7 animals; one group for each treatment and one to serve as a control (vehicle treated). The compounds of the invention are formulated in water containing 5% Tween 80 (a polyoxyethylene sorbitan monooleate available from Aldrich Chemical Company, Inc., Milwaukee, Wis.). The, guinea pigs are treated orally once daily for four consecutive days starting 24 hours after infection. Twenty-four hours after the initial dose of test compound has been administered, blood is obtained from 3 guinea pigs from each treatment group by cardiac puncture of methoxyflurane anesthetized animals. Blood is pooled and allowed to clot at room temperature. After low speed centrifugation, serum is collected and stored at -70° C. until analysis. Interferon levels in the guinea pig serum are determined in a standard microtiter assay using transformed guinea pig cells (ATCC CRL 1405). The interferon assay is done in 96 well microtiter plates. Confluent monolayers of transformed guinea pig cells are treated with dilutions of guinea pig serum made with medium 199 (GIBCO, Grand Island, N.Y.). The cell and serum dilutions are incubated at 37° C. overnight. The following day, the medium and serum are removed and about 10 plaque forming units of Mengovirus are added to each well. Controls consist of wells that receive no guinea pig serum (virus positive control) and wells that receive no virus (virus negative control). Cells and virus are incubated for 2 to 3 days at 37° C. before quantifying for viral cytopathic effect. The viral cytopathic effect is quantified by staining with 0.05% crystal violet followed by spectrophotometric absorbance measurements. The titer of interferon in serum is expressed as units/mL and is the reciprocal of the highest dilution that protects cells from virus.

Row | Compound | Interferon-α induction ([1]; dose concentration 0.10 μg/mL) | Interferon-α induction ([1]; dose concentration 0.50 μg/mL) | Interferon-α induction ([1]; dose concentration 1.0 μg/mL) | Interferon-α induction ([1]; dose concentration 5.0 μg/mL) | Interferon induction in mice ([2]; oral 0.3 mg/kg, 1 hr) | Interferon induction in mice ([2]; oral 0.3 mg/kg, 2 hr) | Interferon induction in mice ([2]; oral 0.3 mg/kg, 4 hr) | Interferon induction in mice ([2]; oral 1 mg/kg, 1 hr) [Reference Units/mL] | Interferon induction in mice ([2]; oral 1 mg/kg, 2 hr) [Reference Units/mL] | Interferon induction in mice ([2]; oral 1 mg/kg, 4 hr) | Interferon induction in mice ([2]; oral 3 mg/kg, 1 hr) [Reference Units/mL] | Interferon induction in mice ([2]; oral 3 mg/kg, 2 hr) [Reference Units/mL] | Interferon induction in mice ([2]; oral 3 mg/kg, 4 hr) [Reference Units/mL] | Interferon induction in mice ([2]; oral 10 mg/kg, 1 hr) [Reference Units/mL] | Interferon induction in mice ([2]; oral 10 mg/kg, 2 hr) | Interferon induction in mice ([2]; oral 10 mg/kg, 4 hr) | Number of Colonies [3] | Interferon-α induction ([1]; dose concentration 0.01 μg/mL) | Interferon-α induction ([1]; dose concentration 0.05 μg/mL) | other results
1 | COCCn1c(COC)nc2c(N)nc3ccccc3c21 [Example 37, 1-(2-Methoxyethyl)-2-methoxymethyl-1H-imidazo[4,5-c]quinolin-4-amine] | <4 α Reference Units/mL | 2500 α Reference Units/mL | 2500 α Reference Units/mL | 210 α Reference Units/mL | <120 Reference Units/mL | <120 Reference Units/mL | <120 Reference Units/mL | <120 | <120 | <120 Reference Units/mL | <120 | <120 | <120 | 270 | ≦270 Reference Units/mL | ≦270 Reference Units/mL | 123 ± 31 | – | – | –
2 | CSCc1nc2c(N)nc3ccccc3c2n1Cc1ccccc1 [Example 31, 2-Methylthiomethyl-1-phenylmethyl-1H-imidazo-[4,5-c]quinolin-4-amine] | 2500 α Reference Units/mL | 370 α Reference Units/mL | 280 α Reference Units/mL | 370 α Reference Units/mL | <61 Reference Units/mL | <61 Reference Units/mL | <61 Reference Units/mL | <61 | 140 | ≦61 Reference Units/mL | 420 | 420 | 320 | 960 | 5000 Reference Units/mL | 550 Reference Units/mL | 221 ± 37 | <4 α Reference Units/mL | 18 α Reference Units/mL | log reduction at 1 µg/mL [4]: 5; log reduction at 5 µg/mL [4]: 5; log reduction at 10 µg/mL [4]: 6
3 | COCc1nc2c(N)nc3ccccc3c2n1CC(C)C [Example 34, 2-Methoxymethyl-1-(2-methylpropyl)-1H-imidazo[4,5-c]quinolin-4-amine] | 1600 α Reference Units/mL | 550 α Reference Units/mL | 180 α Reference Units/mL | 200 α Reference Units/mL | ≦61 Reference Units/mL | ≦61 Reference Units/mL | ≦61 Reference Units/mL | 140 | 320 | ≦61 Reference Units/mL | 420 | 420 | 140 | 1100 | 1100 Reference Units/mL | 180 Reference Units/mL | 196 ± 20 | <4 α Reference Units/mL | <4 α Reference Units/mL | –
4 | CC(C)Cn1c(CN2CCOCC2)nc2c(N)nc3ccccc3c21 [Example 12, 1-(2-Methylproyl)-2-morpholinomethyl-1H-imidazo-[4,5-c]quinolin-4-amine] | – | – | – | – | – | – | – | 94 | 160 | <18 Reference Units/mL | 54 | 40 | <18 | 850 | 850 Reference Units/mL | 40 Reference Units/mL | 149 ± 21 | – | – | % Lesion Inhibition ([5]; dose 0.5 mg/kg): 82%; % Lesion Inhibition ([5]; dose 2 mg/kg): 100%; Interferon induction in mice ([2]; oral 30 mg/kg, 1 hr): 850 Reference Units/mL; Interferon induction in mice ([2]; oral 30 mg/kg, 2 hr): 5800 Reference Units/mL; Interferon induction in mice ([2]; oral 30 mg/kg, 4 hr): 40 Reference Units/mL; Interferon-α induction ([6]; dose concentration 0.10 μg/mL): <1.8 α Reference Units/mL; Interferon-α induction ([6]; dose concentration 0.50 μg/mL): 37 α Reference Units/mL; Interferon-α induction ([6]; dose concentration 1.0 μg/mL): 140 α Reference Units/mL; Interferon-α induction ([6]; dose concentration 5.0 μg/mL): 330 α Reference Units/mL; Reference Units/mL (interferon in serum) ([7]; 0.5 mg/kg): >12,800 Units/mL; Reference Units/mL (interferon in serum) ([7]; 2 mg/kg): >12,800 Units/mL
